Test results: US12419853B2, “Nanoparticle pharmaceutical delivery system” (ADEIRA PHARMA, LLC, priority 2019, dated 2025)

Assays:
[1] = test system: OVCAR3 human ovarian carcinoma xenograft; assay: OVCAR3 xenograft efficacy; type: in vivo; settings: CB.17 SCID mice, 4 mg/kg weekly, four doses
Experimental: In this three-arm study, a vehicle control was included, which consisted of the nanoparticle emulsion with no cisplatin. A positive control arm included a conventional formulation of free cisplatin dosed at 4 mg/kg. The test arm included the nanoparticle emulsion at a dose of 4 mg/kg.
60 female CB.17 SCID mice, aged 8 to 12 weeks, were implanted with 1 mm^3 OVCAR3 tumor fragments in the flank. When the tumors had grown to approximately 100-150 mm^3, pairs were matched by tumor size and treatment began. Dosing was carried out weekly on all three arms, for a total of four doses. Body weight and tumor size for each of the mice was taken every other day. No excess toxicity was noted, as evidenced by body weight and observed behavior of the mice. […] The negative control (labeled ‘vehicle’ in FIG. 6) served as a reference for tumor growth in the absence of cisplatin.

[2] = Description: In a fifth alternative example, formulation of a nanoparticle emulsion was attempted as described in example 1, except that no triacetin was used, just safflower oil as the lipid component. […] The maximum solubility was approximately 1000× less than in triacetin.

SMILES	effect on tumor growth [1]	maximum solubility in safflower oil, fold less than in triacetin [2]
N.N.[Cl][Pt][Cl] [free cisplatin, cisplatin]	significant reduction in tumor growth	–
CC(=O)O[C@H]1C(=O)[C@@]2(C)[C@H]([C@H](OC(=O)c3ccccc3)[C@]3(O)C[C@H](OC(=O)[C@H](O)[C@@H](NC(=O)c4ccccc4)c4ccccc4)C(C)=C1C3(C)C)[C@]1(OC(C)=O)CO[C@@H]1C[C@@H]2O [paclitaxel]	–	approximately 1000 ×
